Earlier results as cited in US20110182952A1, “DRUG DELIVERY FROM EMBOLIC AGENTS” (BIOCOMPATIBLES UK LIMITED, priority 2004, published 2011).

Conditions: uterine artery embolization for leiomyomata

Compound: CCN(CC)CC(=O)Nc1c(C)cccc1C [lidocaine]
- arterial spasm on intraarterial use: causes a large amount of spasm
